# Test results published in ChEMBL document CHEMBL1149970, “Novel dithiocarbamate carbapenems1 with anti-MRSA activity” (Bioorg Med Chem Lett, 1997).
# Columns and labels:
# [1] = Compound was measured for binding rate for human serum at a carbapenem concentration of 10 ug/mL; format: ADME; details: read-out: Protein binding (converted)
# [2] = target: T1, Dipeptidase 1 (Sus scrofa) (UniProt P22412); experiment: Relative rate of hydrolysis of porcine renal dehydropeptidase-I (DHP-I) to imipenem; format: functional
# T1 sequence (whole entry): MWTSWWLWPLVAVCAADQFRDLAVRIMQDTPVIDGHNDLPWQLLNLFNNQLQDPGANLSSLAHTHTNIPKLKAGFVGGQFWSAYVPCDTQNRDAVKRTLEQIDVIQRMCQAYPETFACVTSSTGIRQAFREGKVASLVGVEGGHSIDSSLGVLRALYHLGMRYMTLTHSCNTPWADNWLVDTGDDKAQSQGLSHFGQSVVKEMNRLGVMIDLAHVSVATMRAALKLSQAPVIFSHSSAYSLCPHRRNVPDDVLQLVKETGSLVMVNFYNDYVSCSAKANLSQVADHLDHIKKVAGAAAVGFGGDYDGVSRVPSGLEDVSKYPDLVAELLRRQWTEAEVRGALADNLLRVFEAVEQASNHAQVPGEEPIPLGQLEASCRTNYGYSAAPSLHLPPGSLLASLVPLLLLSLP
# [3] = target: T1, Dipeptidase 1 (Sus scrofa); experiment: Compound was measured for DHP-I susceptibility; format: functional
# Enterococcus faecalis = experiment: In vitro antibacterial activity against Enterococcus faecalis MB4996 organism; format: functional
# Escherichia coli = experiment: In vitro antibacterial activity against Escherichia coli NIHJ JC2 organism; format: functional
# Mus musculus = species on record: Mus musculus; experiment: Compound was measured for binding rate for mouse serum at a carbapenem concentration of 10 ug/mL; format: functional
# Pseudomonas aeruginosa = experiment: In vitro antibacterial activity against Pseudomonas aeruginosa MB5002 organism; format: functional
# Rattus norvegicus [4] = experiment: Epileptogenicity of compound was measured at 100 ug/rat head by the rat intraventricular assay; 0/5; format: functional, Cerebral ventricle
# [5] = tested on: Staphylococcus epidermidis; experiment: In vitro antibacterial activity against Staphylococcus epidermidis MB5181a organism; format: functional; details: Staphylococcus epidermidis; read-out: MIC
# Staphylococcus aureus [6] = experiment: Compound was tested in vivo for its anti-methicillin-resistant staphylococcus aureus(MRSA); format: functional
# Staphylococcus aureus [7] = experiment: In vitro antibacterial activity against staphylococcus aureus 209P NIHJ JC1 organism; format: functional
# Staphylococcus aureus [8] = experiment: In vitro antibacterial activity against staphylococcus aureus BB6294 organism (Methicillin-resistant strain); format: functional
# Staphylococcus aureus [9] = experiment: In vitro antibacterial activity against staphylococcus aureus CSa1009 (Methicillin-resistant strain and b beta-Lactamase producing strain); format: functional
# Staphylococcus aureus [10] = experiment: Compound was tested in vitro for its anti-methicillin-resistant staphylococcus aureus(MRSA); 0.78-3.13; format: functional
# Rattus norvegicus [11] = experiment: Epileptogenicity of compound was measured at 100 ug/rat head by the rat intraventricular assay; 3/5; format: functional
# Staphylococcus aureus [12] = experiment: Compound was tested in vitro for its anti-methicillin-resistant staphylococcus aureus(MRSA); 3.13-12.5; format: functional
# Staphylococcus aureus [13] = experiment: (§1) PBP-2'' affinity was determined by the competition assay with [14C]benzylpenicillin using membrane isolated from MRSA BB6294 strain; format: functional
# [14] = as §1; format: functional, Staphylococcus aureus
# Staphylococcus aureus [15] = experiment: Compound was tested in vitro for its anti-methicillin-resistant staphylococcus aureus(MRSA); 3.13-6.25; format: functional
# Rattus norvegicus [16] = experiment: Epileptogenicity of compound was measured at 100 ug/rat head by the rat intraventricular assay; 1/5; format: functional
compound,measurement,setting,value
C[C@@H](O)[C@H]1C(=O)N2C(C(=O)O)=C(SC(=S)N(C)Cc3cccc4ccccc34)[C@H](C)[C@H]12,fraction unbound at 10 ug/mL,[1],0.01
same,DHP-I susceptibility,[2],4.41
same,DHP-I susceptibility,[3],4.41
same,MIC,Enterococcus faecalis,1.56 µg/mL
same,MIC,Escherichia coli,25 µg/mL
same,PPB,Mus musculus,99%
same,MIC,Pseudomonas aeruginosa,> 25 µg/mL
same,Epileptogenicity,Rattus norvegicus [4],0
same,MIC,[5],0.39 µg/mL
same,ED50,Staphylococcus aureus [6],> 50 mg/kg
same,MIC,Staphylococcus aureus [7],< 0.006 µg/mL
same,MIC,Staphylococcus aureus [8],0.78 µg/mL
same,MIC,Staphylococcus aureus [9],1.56 µg/mL
same,MIC,Staphylococcus aureus [10],1.15 µg/mL
C[C@@H](O)[C@H]1C(=O)N2C(C(=O)[O-])=C(SC(=S)N3CC[N+](C)(Cc4ccccc4)CC3)[C@H](C)[C@H]12,fraction unbound at 10 ug/mL,[1],0.4
same,DHP-I susceptibility,[2],0.15
same,DHP-I susceptibility,[3],0.15
same,MIC,Enterococcus faecalis,1.56 µg/mL
same,MIC,Escherichia coli,1.56 µg/mL
same,PPB,Mus musculus,82%
same,MIC,Pseudomonas aeruginosa,> 25 µg/mL
same,Epileptogenicity,Rattus norvegicus [11],3
same,MIC,[5],1.56 µg/mL
same,ED50,Staphylococcus aureus [6],10 mg/kg
same,MIC,Staphylococcus aureus [7],< 0.006 µg/mL
same,MIC,Staphylococcus aureus [8],3.13 µg/mL
same,MIC,Staphylococcus aureus [9],6.25 µg/mL
same,MIC,Staphylococcus aureus [12],5.36 µg/mL
C[C@@H](O)[C@H]1C(=O)N2C(C(=O)O)=C(SCCNC=N)C[C@H]12 [IMIPENEM ANHYDROUS],DHP-I susceptibility,[2],1
same,MIC,Enterococcus faecalis,0.78 µg/mL
same,MIC,Escherichia coli,0.1 µg/mL
same,MIC,Pseudomonas aeruginosa,1.56 µg/mL
same,IC50,Staphylococcus aureus [13],125 µg/mL
same,MIC,[5],100 µg/mL
same,ED50,Staphylococcus aureus [6]; Staphylococcus aureus,> 200 mg/kg
same,MIC,Staphylococcus aureus [7],< 0.006 µg/mL
same,MIC,Staphylococcus aureus [8],100 µg/mL
same,MIC,Staphylococcus aureus [9],100 µg/mL
C[C@@H](O)[C@H]1C(=O)N2C(C(=O)O)=C(SC(=S)N(C)CCO)[C@H](C)[C@H]12,fraction unbound at 10 ug/mL,[1],0.53
same,DHP-I susceptibility,[2],1.36
same,DHP-I susceptibility,[3],1.33
same,MIC,Enterococcus faecalis,6.25 µg/mL
same,MIC,Escherichia coli,0.78 µg/mL
same,PPB,Mus musculus,58%
same,IC50,[14],3.8 µg/mL
same,MIC,Pseudomonas aeruginosa,> 25 µg/mL
same,Epileptogenicity,Rattus norvegicus [4],0
same,MIC,[5],6.25 µg/mL
same,ED50,Staphylococcus aureus [6],4.8 mg/kg
same,MIC,Staphylococcus aureus [7],0.025 µg/mL
same,MIC,Staphylococcus aureus [8],3.13 µg/mL
same,MIC,Staphylococcus aureus [9],6.25 µg/mL
same,MIC,Staphylococcus aureus [15],4.36 µg/mL
C[C@@H](O)[C@H]1C(=O)N2C(C(=O)O)=C(SC(=S)N3CCCC3)[C@H](C)[C@H]12,fraction unbound at 10 ug/mL,[1],0.06
same,DHP-I susceptibility,[2],3.18
same,DHP-I susceptibility,[3],3.18
same,MIC,Enterococcus faecalis,12.5 µg/mL
same,MIC,Escherichia coli,6.25 µg/mL
same,PPB,Mus musculus,95%
same,IC50,[14],5.6 µg/mL
same,MIC,Pseudomonas aeruginosa,> 25 µg/mL
same,Epileptogenicity,Rattus norvegicus [16],1
same,MIC,[5],3.13 µg/mL
same,ED50,Staphylococcus aureus [6],6.24 mg/kg
same,MIC,Staphylococcus aureus [7],0.012 µg/mL
same,MIC,Staphylococcus aureus [8],3.13 µg/mL
same,MIC,Staphylococcus aureus [9],6.25 µg/mL
same,MIC,Staphylococcus aureus [15],4.04 µg/mL
